In ChEMBL document CHEMBL1221220, “Transport and signaling via the amino acid binding site of the yeast Gap1 amino acid transceptor” (Nat Chem Biol, 2009):
Numbering of substitutions follows the chain as printed. Activity calls are given as the source filed them. The calls are words filed in the database; no cut-off is given here.

Tests used:
[1] = test system: T1, General amino-acid permease GAP1 (Saccharomyces cerevisiae), P19145 [A393C]; assay: Induction of yeast Gap1 A393C mutant-mediated trehalose activation at 10 mM
T1 sequence (whole entry): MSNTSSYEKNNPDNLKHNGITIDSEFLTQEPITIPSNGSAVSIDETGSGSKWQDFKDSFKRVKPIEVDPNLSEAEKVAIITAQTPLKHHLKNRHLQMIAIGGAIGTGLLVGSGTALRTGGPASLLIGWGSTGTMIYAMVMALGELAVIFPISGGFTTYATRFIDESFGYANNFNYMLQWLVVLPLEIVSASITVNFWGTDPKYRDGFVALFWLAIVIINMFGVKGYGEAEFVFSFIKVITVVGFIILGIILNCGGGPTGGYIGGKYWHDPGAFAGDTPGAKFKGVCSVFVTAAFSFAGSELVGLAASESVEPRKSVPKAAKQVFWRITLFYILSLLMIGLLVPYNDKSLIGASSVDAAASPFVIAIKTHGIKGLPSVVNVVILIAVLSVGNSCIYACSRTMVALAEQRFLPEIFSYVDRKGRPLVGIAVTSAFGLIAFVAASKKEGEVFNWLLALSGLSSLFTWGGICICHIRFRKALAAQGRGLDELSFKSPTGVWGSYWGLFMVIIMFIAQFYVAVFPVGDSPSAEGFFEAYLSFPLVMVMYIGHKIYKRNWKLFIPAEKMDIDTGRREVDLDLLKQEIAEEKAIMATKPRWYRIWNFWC

[2] = test system: T2, General amino-acid permease GAP1 (Saccharomyces cerevisiae), P19145 [V381C]; assay: Induction of yeast Gap1 V381C mutant-mediated amino acid uptake at 2 mM in presence of 10 mM MTSEA treated before compound addition
T2 sequence (whole entry): T1 sequence (whole entry) with V381C, C393A

[3] = test system: T3, General amino-acid permease GAP1 (Saccharomyces cerevisiae), P19145 [R399C]; assay: Induction of yeast Gap1 R399C mutant-mediated trehalose activation at 2 mM in presence of 10 mM MTSEA treated before compound addition
T3 sequence (whole entry): T1 sequence (whole entry) with C393A, R399C

[4] = test system: T1, General amino-acid permease GAP1 (Saccharomyces cerevisiae), P19145 [A393C]; assay: Induction of yeast Gap1 A393C mutant-mediated amino acid uptake at 2 mM in presence of 10 mM MTSEA treated before compound addition
[5] = test system: T4, General amino-acid permease GAP1 (Saccharomyces cerevisiae), P19145 [S398C]; assay: Induction of yeast Gap1 S398C mutant-mediated amino acid uptake at 2 mM in presence of 10 mM MTSEA treated before compound addition
T4 sequence (whole entry): T1 sequence (whole entry) with C393A, S398C

Activity [1]: inactive
Activity [2]: Active
inhibition [3]: Active
Activity [4]: Active
Activity [5]: Active
Structure (SMILES): NC(=O)NCCC[C@H](N)C(=O)O
